Tests used:
Format in all cases: cell-based
Rap1 = Rap1 activation affinity assay (GST-RalGDS pull-down), NIH3T3 cells
Description: NIH3T3 cells (American Type Culture Collection, ATCC, Manassas, Va.) were cultured in Dulbecco-Modified Eagle Medium (DMEM) plus 10% fetal calf serum, penicillin/streptomycin, and L-glutamine at 37° C. in 5% CO2. Cells were maintained in serum-free DMEM for 16 hours at 37° C. in 5% CO2 prior to treatment. NIH3T3 cells were trasfected with Flag-Rap1 (see Vossler et al., Cell, 89:73-82, 1997) or stimulated with Forskolin (10 μM, Cal Biochem, Riverside, Calif.) for five minutes. Forskolin treated cells received either a pretreatment or post-treatment with 10 μM N-[2(Bromocimamylamino) ethyl]-5-isoquinolinesulfonamide (H89) (Cal Biochem, Riverside, Calif.) for 20 minutes.
Cells were co-transfected with Flag-Rap1 at seventy to eighty percent confluency with the cDNA using a Lipofectamine 2000 kit (Gibco BRL, Rockville, Md.) according to the manufacturer's instructions. The control vector, pcDNA3 (Invitrogen Corp.), was included in each set of transfections to assure that each plate received the same amount of DNA. Following transfection, cells were allowed to recover in serum containing media for 24 hours. Cells were then starved overnight in serum-free DMEM before treatment and lysis.
After treatment, cells were lysed in ice-cold lysis buffer (50 mM Tris-HCL (pH 8.0), 10% glycerol, 1% nonidet P40, 200 mM NaCl, 2.5 mM MgCl2, 1 mM phenylmethylsulfonyl fluoride, 1 μM leupeptin, 10 μln soybean trypsin inhibitor, 10 mM NaF, 0.1 μM aprotinin, and 1 mM NaVO4). Nuclei and cytoskeleton were removed from equivalent amounts of lysate by centrifugation at 5,000 rpm for five minutes. The supernatant was centrifuged at 100,000×g for one hour at 4° C. and, the resultant membrane was resuspended in cold lysis buffer. Aliquots of the membrane fraction were analyzed for the presence of C3G by Western blotting. The cytosolic or membrane fractions of treated or untreated cells were mixed with equivalent amounts of lysates from untreated Flag-Rap1 transfected cells. The mixture was incubated at 37° C. for five minutes and equal amounts of lysate were analyzed using the Rap1 activation assay to monitor Flag-Rap 1 activation by Gst-RalGDS.
The Rap1 activation affinity assay was performed as follows. A GST fusion protein of the Rap1-binding domain of RalGDS (GST-RalGDS, Dr. Bos, Utrecht University, The Netherlands) was expressed in E. coli following induction by isopropyl-1thio-β-D-galactopyranoside. Active Rap1 was isolated as previously described (Franke et al., EMBO J. 16:252-9, 1997). Briefly, equivalent amounts of supernatants (500 μg) were incubated with GST-RalGDS-Rap1 binding domain coupled to glutathione beads. Following a one hour incubation at 4° C., beads were pelleted and rinsed threes times with ice-cold lysis buffer. […] Proteins were detected using enhanced chemiluminescence.

[1] = system: complex including C3G, Crk-L, and Cb1; assay: Cb1/Crk-L/C3G complex formation (myc-Cb1 immunoprecipitation), NIH3T3 cells
From the text: To determine if Cb1 forms part of a complex, cells were stimulated with Forskolin in the presence or absence of H89 or PP2 and lysates generated as described above. Myc-Cb1 was immunoprecipitated from treated cells and the pellets analyzed by Western blot using antibodies specific for Crk-L and C3G. Total cell lysates were examined for myc-Cb1 by Western blot using a myc antibody (Santa Cruz Biotechnology Inc.). NIH3T3 cells express Crk-L, an isoform of Crk that is constitutively bound to C3G.

AKT = AKT phosphothreonine 308 Western blot, Hek293 cells
Description: To determine the physiological role of Ras signaling in Hek293 cells, a well-known Ras effector, phosphoinositol-3 kinase (PI3-K) and its target, AKT (a serine/threonine kinase which participates in a variety of cellular effects including cell survival, adhesion, and cell growth) were examined as follows. Hek293 cells received no pretreatment or were pretreated for 20 minutes with H89 (10 μM), PP2 (10 μM), or LY (10 μM), and stimulated for 5 minutes with isoproterenol. Cell lysates were analyzed by Western blotting for phospho-AKT (PAKT 308, Cell Signaling, Beverly, Mass.) or total AKT (Cell Signaling) as a control. Isoproterenol activated AKT, as measured by phosphorylation-specific antibodies to phosphothreonine 308 (AKT). This phosphorylation required P13-K as LY blocked isoproterenol-induced phosphorylation at this site. Moreover, this phosphorylation was blocked by PP2, but not H89, indicating the requirement of SFKs, but not PKA. Therefore, isoproterenol's activation of AKT proceeds through Src and PI3-K but not PKA.
Similar amounts of cell lysate (determined by protein concentrations) were immunoprecipitated using an agarose-coupled HA antibody followed by Western blotting for phospho-AKT (PHA-AKT 308) or total HA-AKT with an HA antibody (12CA5, Boehringer Mannheim, Indianapolis, Ind.).

Row | Structure (SMILES) | Effect on Forskolin activation of Flag-Rap1 in trans (Rap1; added ten minutes after Forskolin) | Effect on Forskolin activation of Flag-Rap1 in trans (Rap1; pretreatment, 10 μM, 20 minutes) | Effect on Forskolin-stimulated C3G/Crk-L/Cb1 complex formation [1] | Effect of inhibitor on isoproterenol-induced AKT phosphorylation (AKT; 10 μM, 20 minutes pretreatment) | Activation of endogenous Rap1 (Rap1; NIH3T3 cells, 10 μM, five minutes) | Activation of AKT (phosphothreonine 308) (AKT; 5 minutes)
1 | O=S(=O)(NCCNC/C=C/c1ccc(Br)cc1)c1cccc2cnccc12 [H89, N-[2(Bromocimamylamino)ethyl]-5-isoquinolinesulfonamide] | still able to activate Flag-Rap1 in trans | blocked | blocked | – | – | –
2 | CC(C)(C)n1nc(-c2ccc(Cl)cc2)c2c(N)ncnc21 [PP2, 4-amino-5-(4-chlorophenyl)-7-(t-butyl)pyazolo[3,4-d]pyrimidine] | – | – | blocked | blocked | – | –
3 | CC(C)NCC(O)c1ccc(O)c(O)c1 (stereo not shown) [isoproterenol] | – | – | – | – | activated Rap1 | activated AKT
